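The compound was tested at five concentrations on cells cultured in 96-well plates, with a 48-hour exposure period. Abbreviation: GI50, concentration required for 50% inhibition of growth.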 The source made the active and inactive calls. No stated cut-off is given here; in the data, active = GI50 up to about 1.1 µM and inactive = higher.
Experiments:
Assay in all cases: NCI-60 cell line screen, 48 h
[1] = tested on: NCI-H23
[2] = tested on: NCI-H460
[3] = tested on: SF-295
[4] = tested on: HOP-62
[5] = tested on: MDA-MB-435
[6] = tested on: MOLT-4
[7] = tested on: SNB-75
[8] = tested on: OVCAR-5
[9] = tested on: NCI/ADR-RES
[10] = tested on: CAKI-1
[11] = tested on: CCRF-CEM
[12] = tested on: ACHN
[13] = tested on: OVCAR-8
[14] = tested on: MDA-MB-231
[15] = tested on: COLO 205
[16] = tested on: NCI-H226
[17] = tested on: Hs-578T
[18] = tested on: U-251
[19] = tested on: UO-31
[20] = tested on: Malme-3M

Measured: GI50

Cc1c([N+](=O)[O-])oc2ccc3ccccc3c12
inactive: [1] 11.2 µM | [2] 3.74 µM | [3] 58.1 µM | [4] > 100 µM | [5] 12.4 µM | [6] 2.58 µM | [7] 28.5 µM | [8] > 100 µM | [9] 33.4 µM | [10] 11.9 µM | [11] 6.32 µM | [12] 16.2 µM | [13] 26.1 µM | [14] > 100 µM | [15] 6.79 µM | [16] > 100 µM | [17] > 100 µM | [18] 65.6 µM | [19] 34.6 µM

Cc1oc2nc(N(C)C)n3cnnc3c2c1C
inactive: [1] > 100 µM | [2] > 100 µM | [3] > 100 µM | [4] > 100 µM | [5] > 100 µM | [6] > 100 µM | [7] 50.6 µM | [8] > 100 µM | [9] > 100 µM | [10] > 100 µM | [11] > 100 µM | [12] > 100 µM | [13] > 100 µM | [14] > 100 µM | [15] > 100 µM | [16] > 100 µM | [17] > 100 µM | [18] > 100 µM | [19] > 100 µM

O=C(/C=C/c1ccsc1)c1ccco1
inactive: [1] 14.2 µM | [2] 14.3 µM | [3] 14.2 µM | [4] 14.9 µM | [5] 20 µM | [6] 4.34 µM | [7] 12.8 µM | [8] 17.1 µM | [9] 16.6 µM | [10] 6.85 µM | [11] 5.86 µM | [12] 10.8 µM | [13] 11.7 µM | [14] 12.7 µM | [15] 17.6 µM | [16] 28.1 µM | [17] 9.4 µM | [18] 7.67 µM | [19] 8.87 µM

CCN(CC)CCSc1nc(-c2c[nH]c3nc(C)ccc3c2=O)n[nH]1
inactive: [1] > 100 µM | [2] > 100 µM | [3] > 100 µM | [4] > 100 µM | [20] > 100 µM | [5] > 100 µM | [6] > 100 µM | [8] > 100 µM | [9] > 100 µM | [10] > 100 µM | [11] > 100 µM | [12] > 100 µM | [13] > 100 µM | [14] > 100 µM | [15] > 100 µM | [16] > 100 µM | [17] > 100 µM | [18] > 100 µM | [19] > 100 µM

Cc1cc(C)n(CN(Cn2nc(C)cc2C)c2ccccc2)n1
inactive: [1] 18.1 µM | [2] 35.1 µM | [3] 57.9 µM | [4] 23.7 µM | [20] 22.8 µM | [5] 13.7 µM | [6] 10.5 µM | [8] 30.1 µM | [9] 20.8 µM | [10] 20.4 µM | [11] 23.3 µM | [12] 18.4 µM | [13] 20.9 µM | [14] 37.6 µM | [15] 14.3 µM | [17] 45 µM | [18] 17.8 µM | [19] 21.7 µM

COc1ccc(N)c(C(=O)CCNC(C)=O)c1 [KINURENAMINE]
inactive: [1] > 100 µM | [2] > 100 µM | [3] > 100 µM | [5] > 100 µM | [6] > 100 µM | [7] > 100 µM | [8] > 100 µM | [9] > 100 µM | [10] > 100 µM | [11] > 100 µM | [12] > 100 µM | [13] > 100 µM | [14] > 100 µM | [15] > 100 µM | [16] > 100 µM | [17] > 100 µM | [18] > 100 µM | [19] > 100 µM

NS(=O)(=O)c1nnc(NC(=O)c2cccc([N+](=O)[O-])c2)s1
inactive: [1] > 100 µM | [2] > 100 µM | [3] > 100 µM | [4] > 100 µM | [20] > 100 µM | [5] > 100 µM | [6] > 100 µM | [8] > 100 µM | [9] > 100 µM | [10] > 100 µM | [12] > 100 µM | [13] > 100 µM | [14] > 100 µM | [15] > 100 µM | [16] > 100 µM | [17] > 100 µM | [18] > 100 µM | [19] > 100 µM

— ChEMBL document CHEMBL1201862, “PubChem BioAssay data set” (2004)
